From ChEMBL document CHEMBL1133233, “The design and synthesis of thrombin inhibitors: the introduction of in vivo efficacy and oral bioavailability into benzthiazolylalanine inhibitors” (Bioorg Med Chem Lett, 2000)
Values after ≈ are worked out from the molar mass of the structure shown.

Assays:
[1] = Effectiveness to inhibit coagulation in plasma measured as activated partial thromboplastin time (APTT); type: functional
Prothrombin = Prothrombin (Homo sapiens, UniProt P00734); assay: Evaluated for the binding affinity against thrombin
Rattus norvegicus [2] = assay: Inhibition of fibrin deposition was determined after 1 hr on arterial thrombosis in the rat at 20 mg/kg oral administration using an acute model of injury induced thrombus formation; type: functional
Rattus norvegicus [3] = assay: Inhibition of fibrin deposition was determined after 2 hr on arterial thrombosis in the rat at 20 mg/kg oral administration using an acute model of injury induced thrombus formation; type: functional
Rattus norvegicus [4] = assay: Inhibition of platelet deposition was determined on arterial thrombosis in the rat at 20 mg/kg oral administration using an acute model of injury induced thrombus formation; type: functional; details: read-out: Inhibition
Rattus norvegicus [5] = assay: Inhibition of platelet deposition was determined on arterial thrombosis in the rat at 10 mg/kg oral administration using an acute model of injury induced thrombus formation; type: functional
[6] = Bioavailability in rat (intraduodenal administration); type: ADME, organism-based; details: in vivo
[7] = Aqueous solubility at pH 7; type: physicochemical
[8] = Oral bioavailability in rat; type: ADME, organism-based; details: in vivo
Serine protease 1 = Serine protease 1 (Homo sapiens, UniProt P07477); assay: Inhibitory activity against trypsin
Chain of Serine protease 1 (P07477 whole entry): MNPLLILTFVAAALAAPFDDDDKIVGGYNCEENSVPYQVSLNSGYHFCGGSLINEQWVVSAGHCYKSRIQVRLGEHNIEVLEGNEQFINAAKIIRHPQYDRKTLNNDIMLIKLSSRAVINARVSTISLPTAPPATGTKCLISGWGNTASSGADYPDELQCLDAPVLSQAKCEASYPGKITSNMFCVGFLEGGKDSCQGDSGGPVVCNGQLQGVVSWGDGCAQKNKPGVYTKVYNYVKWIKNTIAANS

[9] = Aqueous solubility at pH 2; type: physicochemical
[10] = Inhibitory activity against TF/VIIa
Plasminogen = Plasminogen (Homo sapiens, UniProt P00747); assay: Inhibitory activity against plasmin
Chain of Plasminogen (P00747 97-580 limits assumed): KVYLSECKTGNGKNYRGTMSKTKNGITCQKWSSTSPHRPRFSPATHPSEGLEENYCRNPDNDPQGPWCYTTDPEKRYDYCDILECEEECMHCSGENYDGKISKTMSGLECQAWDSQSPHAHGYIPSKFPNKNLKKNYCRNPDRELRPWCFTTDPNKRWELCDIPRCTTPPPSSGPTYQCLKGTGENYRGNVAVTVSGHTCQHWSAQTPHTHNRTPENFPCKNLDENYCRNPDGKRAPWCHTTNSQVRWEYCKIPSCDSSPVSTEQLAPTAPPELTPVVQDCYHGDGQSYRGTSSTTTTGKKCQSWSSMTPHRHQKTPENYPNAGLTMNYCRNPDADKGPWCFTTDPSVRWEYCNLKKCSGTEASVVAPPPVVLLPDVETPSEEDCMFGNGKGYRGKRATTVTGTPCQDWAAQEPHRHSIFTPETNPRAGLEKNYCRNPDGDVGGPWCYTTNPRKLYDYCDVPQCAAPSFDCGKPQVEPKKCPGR
Chain of Plasminogen (P00747 581-810 limits assumed): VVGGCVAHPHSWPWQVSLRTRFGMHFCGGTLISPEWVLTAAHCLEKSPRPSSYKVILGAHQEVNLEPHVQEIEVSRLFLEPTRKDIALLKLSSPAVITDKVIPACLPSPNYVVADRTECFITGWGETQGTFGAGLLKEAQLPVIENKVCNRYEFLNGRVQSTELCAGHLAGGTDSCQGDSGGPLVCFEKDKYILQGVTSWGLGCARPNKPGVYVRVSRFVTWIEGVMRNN

Coagulation factor X = Coagulation factor X (Homo sapiens, UniProt P00742); assay: Inhibitory activity against Coagulation factor X
Chain of Coagulation factor X (P00742 41-179 limits assumed): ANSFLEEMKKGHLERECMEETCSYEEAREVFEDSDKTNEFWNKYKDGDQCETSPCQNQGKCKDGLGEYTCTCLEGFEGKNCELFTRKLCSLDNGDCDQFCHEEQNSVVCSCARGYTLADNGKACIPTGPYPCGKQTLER
Chain of Coagulation factor X (P00742 235-488 limits assumed): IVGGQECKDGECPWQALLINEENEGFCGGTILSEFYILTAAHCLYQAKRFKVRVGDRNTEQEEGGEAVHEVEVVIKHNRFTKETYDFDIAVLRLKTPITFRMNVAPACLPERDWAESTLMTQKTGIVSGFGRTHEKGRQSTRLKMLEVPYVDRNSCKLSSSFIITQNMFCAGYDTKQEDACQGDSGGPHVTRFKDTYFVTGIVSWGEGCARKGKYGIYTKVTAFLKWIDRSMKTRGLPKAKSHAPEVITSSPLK

Structure (SMILES)	Ki (Prothrombin) [µM]	APTT [1] [µM]	other results
CC1(C)CNc2c(cc(CCC(=O)N3CCN(CC(=O)N4CCOCC4)CC3)cc2S(=O)(=O)N[C@@H](Cc2nc3ccccc3s2)C(=O)N2CCC(CCF)CC2)C1 [listing 1 of 2 here]			inhibition in vivo at 20 mg/kg (Rattus norvegicus [2]): 48%; inhibition in vivo at 20 mg/kg (Rattus norvegicus [3]): 43%; inhibition in vivo at 20 mg/kg (Rattus norvegicus [4]): 60%; inhibition in vivo at 10 mg/kg (Rattus norvegicus [5]): 60%
CC1(C)CNc2c(cccc2S(=O)(=O)N[C@@H](CCCN=C(N)N)C(=O)N2CCC(CCF)CC2)C1 [CGH-728]	0.006	2.1	
CCOC(=O)c1cc2c(c(S(=O)(=O)N[C@@H](Cc3nc4ccccc4s3)C(=O)N3CCC(CCF)CC3)c1)NCC(C)(C)C2		105.4	
COCCOCOCc1cc2c(c(S(=O)(=O)N[C@@H](Cc3nc4ccccc4s3)C(=O)N3CCC(CCF)CC3)c1)NCC(C)(C)C2	0.125	18	
CC(=O)N1CCN(C(=O)CCc2cc3c(c(S(=O)(=O)N[C@@H](Cc4nc5ccccc5s4)C(=O)N4CCC(CCF)CC4)c2)NCC(C)(C)C3)CC1	0.034	7.5	
CC1(C)CNc2c(cc(CCC(=O)N3CCN(Cc4ccncc4)CC3)cc2S(=O)(=O)N[C@@H](Cc2nc3ccccc3s2)C(=O)N2CCC(CCF)CC2)C1	0.027	9.7	
CC1(C)CNc2c(cccc2S(=O)(=O)N[C@@H](Cc2nc3ccccc3s2)C(=O)N2CCC(CCF)CC2)C1		26.5	
CC1(C)CNc2c(cc(CCC(=O)N3CCN(CC(=O)N4CCOCC4)CC3)cc2S(=O)(=O)N[C@@H](Cc2nc3ccccc3s2)C(=O)N2CCC(CCF)CC2)C1 [listing 2 of 2 here]	0.057	7	Ki (Serine protease 1): 153 µM; bioavailability [6]: 38%; solubility [7]: 0.13 mg/mL (≈ 157 µM); solubility [9]: 15 mg/mL (≈ 18200 µM); Ki [10]: 11600 µM; Ki (Plasminogen): 212 µM; bioavailability [8]: 28%; Ki (Coagulation factor X): ≥ 200 µM

Further lines, with some results ahead:

Ki (Prothrombin) [µM]	Structure (SMILES)	APTT [1] [µM]	other results
0.064	CC1(C)CNc2c(cc(CO)cc2S(=O)(=O)N[C@@H](Cc2nc3ccccc3s2)C(=O)N2CCC(CCF)CC2)C1	16.8	
0.094	CC1(C)CNc2c(cc(CCCC(=O)O)cc2S(=O)(=O)N[C@@H](Cc2nc3ccccc3s2)C(=O)N2CCC(CCF)CC2)C1	16.6	
0.359	CC1(C)CNc2c(cc(C(=O)O)cc2S(=O)(=O)N[C@@H](Cc2nc3ccccc3s2)C(=O)N2CCC(CCF)CC2)C1	13	
0.119	CC1(C)CNc2c(cc(CCCO)cc2S(=O)(=O)N[C@@H](Cc2nc3ccccc3s2)C(=O)N2CCC(CCF)CC2)C1	19	
0.077	CNC(=O)OCc1cc2c(c(S(=O)(=O)N[C@@H](Cc3nc4ccccc4s3)C(=O)N3CCC(CCF)CC3)c1)NCC(C)(C)C2	20.7	
0.5	CC1(C)CNc2c(cc(CC(=O)O)cc2S(=O)(=O)N[C@@H](Cc2nc3ccccc3s2)C(=O)N2CCC(CCF)CC2)C1	14.9	
0.039	CC1(C)CNc2c(cc(CCO)cc2S(=O)(=O)N[C@@H](Cc2nc3ccccc3s2)C(=O)N2CCC(CCF)CC2)C1	13.7	
0.082	CC1(C)CNc2c(cc(CCC(=O)O)cc2S(=O)(=O)N[C@@H](Cc2nc3ccccc3s2)C(=O)N2CCC(CCF)CC2)C1	10.7	bioavailability [6]: 50%; solubility [7]: 0.00515 mg/mL (≈ 8.16 µM); bioavailability [8]: 0%
0.047	CC1(C)CNc2c(cc(CCNC(N)=O)cc2S(=O)(=O)N[C@@H](Cc2nc3ccccc3s2)C(=O)N2CCC(CCF)CC2)C1	10.2	
0.034	CN(C)C(=O)CCc1cc2c(c(S(=O)(=O)N[C@@H](Cc3nc4ccccc4s3)C(=O)N3CCC(CCF)CC3)c1)NCC(C)(C)C2	9.2	
